Results reported in patent US20060192819A1, “Recording apparatus” (Fuji Xerox Co., Ltd., priority 2005, published 2006).

Test: Solubility of ionic liquid in 100 g of ink or treating solution
Type: physicochemical
Settings: about 23° C., left 1 day
Experimental: Solubility (the amount of the ionic liquid that can be solved in 100 g of the ink) is defined by mixing the ink and the ionic liquid in predetermined amounts and leaving the resultant mixture for 1 day while keeping it at a temperature of about 23° C. The amount of ionic liquid that has separated from the ink 1 day after mixing is determined as the amount of ionic liquid exceeding the solubility of the ionic liquid in the ink.

| Structure (SMILES) | Solubility (g) of ionic liquid in 100 g of ink (ink A) | Solubility (g) ionic liquid in 100 g of treating solution (treating solution A) | Solubility (g) of ionic liquid in 100 g of ink (ink B) |
| --- | --- | --- | --- |
| CC[N+](C)(CC)CCOC.O=S(=O)([N-]S(=O)(=O)C(F)(F)F)C(F)(F)F [Example 1-2, N-diethyl-3-methyl-N-(2-methoxyethyl)ammonium bis(trifluoromethanesulfonyl)imide] | 0.1 g or less | 0.1 g or less |  |
| CC[N+](C)(CC)CCOC.F[B-](F)(F)F [Example 1-4, N-diethyl-3-methyl-N-(2-methoxyethyl)tetrafluoroborate] |  |  | less than 5 g |
